From patent US4774241A, “Derivative of benzoquinonylphenyl alkanoic acid amide” (Suntory Limited, priority 1986, dated 1988)

What was measured:
[1] = Acute Toxicity Test; conditions: mouse, in vivo; ip, mice, suspended in 1% arabic gum
From the text: Male ddY-STF mice having an age of 4 to 5 weeks and a body weight of 22 to 30 g were used for evaluating the acute toxicity of the present compounds. The sample compound was suspended in 1% arabic gum and was intraperitoneally injected.

[2] = system: Male ddY mice (hypobaric hypoxia); assay: Hypobaric Hypoxia Activity (survival time of mice at 180 mmHg); assay type: in vivo; conditions: Mus musculus, ip, 30 minutes before evacuation, survival time vs. control, read-out: Hypobaric Hypoxia (Minimum effective dose)
Protocol: (§1) The activities of some compounds prepared in the above-mentioned Synthetic Examples and the Comparative Examples were evaluated as follows.
1. Hypobaric Hypoxia Activity
Male ddY mice having a body weight of 22 to 30 g were used (i.e., 7 to 10 mice in one group). The mice were placed in a desiccator having a volume of about 1 liter and the desiccator was evacuated and then, the sample compound was intraperitoneally injected […]. into the mice. The desiccator was evacuated 30 minutes after the injection and the time from the start of the evacuation to the termination of breathing by the mice was determined to be the survival time. If a mouse was still alive 15 minutes after exposure to the hypoxia, the survival time was assumed to be 15 minutes. The results were compared with a control group, to which only a liquid medium (e.g., physiological saline) was injected.

[3] = system: Male ddY mice (global ischemia); assay: Global Ischemia Activity (gasping time after decapitation); assay type: in vivo; conditions: ip
Protocol: as §1
2. Global Ischemia Activity
Male ddY mice having a body weight of 22 to 30 g were used (i.e., 6 mice in one group). The sample compound was intraperitoneally injected into the mice and the mice were decapitated 30 minutes after the injection. After decapitation, the gasping times were determined. The results were compared with a control group to which only the liquid medium (i.e., physiological saline) was injected.

SMILES | LD50 [1] [mg/kg] | minimal effective dose [2] [mg/kg] | Gasping time ([3]; 25 mg/kg) | minimal effective dose ([3]; Mus musculus, 30 minutes before decapitation, gasping time vs. control, read-out: Global Ischemia (Minimum effective dose)) [mg/kg]
COC1=C(OC)C(=O)C(C(CCCC(=O)O)c2ccccc2)=C(C)C1=O (stereo not drawn) [compound 2, 5-(3,4-Dimethoxy-6-methyl-2,5-benzoquinonyl)-5-phenylvaleric acid, reference compound] | > 500 | – | – | –
COC1=C(OC)C(=O)C(C(CCCC(=O)N2CCSCC2)c2ccccc2)=C(C)C1=O (stereo not drawn) [Example 4, 5-(3,4-dimethoxy-6-methyl-2,5-benzoquinonyl)-5-phenyl-1-thiomorpholino-1-oxopentane] | > 1000 | 6.25 | – | –
COC1=C(OC)C(=O)C(C(CCCC(=O)N2CCOCC2)c2ccccc2)=C(C)C1=O (stereo not drawn) [Example 5, 5-(3,4-dimethoxy-6-methyl-2,5-benzoquinonyl)-5-phenyl-1-morpholino-1-oxopentane] | > 1000 | 6.25 | – | –
COC1=C(OC)C(=O)C(C(CCCCCC(=O)O)c2ccccc2)=C(C)C1=O (stereo not drawn) [compound 3, 7-(3,4-Dimethoxy-6-methyl-2,5-benzoquinonyl)-7-phenylheptanoic acid, reference compound] | > 500 | – | Gasping time was shortened | –
COC1=C(OC)C(=O)C(C(CCC(=O)N2CCSCC2)c2ccccc2)=C(C)C1=O (stereo not drawn) [Example 1, 4-(3,4-dimethoxy-6-methyl-2,5-benzoquinonyl)-4-phenyl-1-thiomorpholine-1-oxobutane] | > 1000 | 6.25 | – | 12.5
COC1=C(OC)C(=O)C(C(CCC(=O)O)c2ccccc2)=C(C)C1=O (stereo not drawn) [compound 1, 4-(3,4-Dimethoxy-6-methyl-2,5-benzoquinonyl)-4-phenylbutyric acid, reference compound] | > 500 | – | – | –
COC1=C(OC)C(=O)C(C(CCC(=O)N2CCN(C)CC2)c2ccccc2)=C(C)C1=O (stereo not drawn) [Example 3, 4-(3,4-Dimethoxy-6-methyl-2,5-benzoquinonyl)-4-phenyl-1-(N-methylpiperazinyl)-1-oxobutane] | – | 25 | – | –
